Laboratory results taken from US20210147367A1, “CRYSTALLINE FORMS OF A MAGL INHIBITOR” (Lundbeck La Jolla Research Center, Inc., priority 2019, published 2021).
“Also recorded” adds a separate entry of the source. Read-outs that look alike come from different tables or passages of the source.

Key:
[1] = Differential scanning calorimetry (DSC) with XRPD after heating: relative stability of crystalline forms; assay type: physicochemical; conditions: for solid form after heating (XRPD): heated to 130° C., above the exotherm, prior to melting; for thermodynamic stability relative to other crystalline forms: DSC analysis
Experimental: X-Ray powder diffractograms were measured on a PANalytical X'Pert PRO X-Ray Diffractometer using CuKα1 radiation (λ=1.5406 Å). The samples were measured in reflection mode in the 2θ-range 3-40 using an X'celerator detector.
Differential Scanning Calorimetry was measured using a TA-Instruments Discovery-DSC calibrated at 5°/min to give the melting point as onset value. About 2 mg of sample is heated 5°/min under nitrogen flow in a closed pan with a pinhole in the lid.

[2] = Slurry experiments in different solvents; assay type: physicochemical
[3] = molecular target: T1, MAGL (Mus musculus, UniProt O35678); assay: MAGL inhibition in mouse brain proteomes from inhibitor treated mice; assay type: in vivo; conditions: 5 mg/kg oral gavage, brain proteome 4 h after administration, C57Bl/6J mice, read-out: MAGL % inh. 5 mg/kg (mouse)
T1 construct: from tissue; host or cells: brain of wild-type C57Bl/6J mice
T1 sequence (O35678 1-303): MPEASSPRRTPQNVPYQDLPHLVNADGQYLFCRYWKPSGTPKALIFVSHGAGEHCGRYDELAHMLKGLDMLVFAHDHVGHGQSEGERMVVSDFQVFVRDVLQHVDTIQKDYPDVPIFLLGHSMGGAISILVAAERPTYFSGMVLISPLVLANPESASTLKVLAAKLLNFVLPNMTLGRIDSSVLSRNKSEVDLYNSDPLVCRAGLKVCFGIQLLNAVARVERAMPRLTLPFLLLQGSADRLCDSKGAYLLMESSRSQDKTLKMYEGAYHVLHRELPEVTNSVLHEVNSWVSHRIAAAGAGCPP
Experimental: (§1) Proteomes (mouse brain membrane fraction or cell lysates for mouse assays; human prefrontal cortex or cell membrane fractions for human assays) (50 μL, 1.0 mg/mL total protein concentration) were preincubated with varying concentrations of inhibitors at 37° C. After 30 min, FP-Rh or HT-01 (1.0 μL, 50 μM in DMSO) was added and the mixture was incubated for another 30 min at 37° C. Reactions were quenched with SDS loading buffer (15 μL-4×) and run on SDS-PAGE. Following gel imaging, serine hydrolase activity was determined by measuring fluorescent intensity of gel bands corresponding to MAGL using ImageJ 1.43u software.
Inhibitors were administered to wild-type C57Bl/6J by oral gavage in a vehicle of polyethylene glycol. Each animal was sacrificed 4 h following administration and brain proteomes were prepared and analyzed according to previously established methods (See Niphakis et al., ACS Chem. Neurosci. 2011 and Long et al. Nat. Chem. Biol. 2009).

[4] = molecular target: T2, MAGL (Homo sapiens, UniProt Q99685); assay: In vitro competitive activity-based protein profiling; assay type: biochemical
T2 construct: human prefrontal cortex or cell membrane fractions for human assays; from tissue
T2 sequence (Q99685 1-303): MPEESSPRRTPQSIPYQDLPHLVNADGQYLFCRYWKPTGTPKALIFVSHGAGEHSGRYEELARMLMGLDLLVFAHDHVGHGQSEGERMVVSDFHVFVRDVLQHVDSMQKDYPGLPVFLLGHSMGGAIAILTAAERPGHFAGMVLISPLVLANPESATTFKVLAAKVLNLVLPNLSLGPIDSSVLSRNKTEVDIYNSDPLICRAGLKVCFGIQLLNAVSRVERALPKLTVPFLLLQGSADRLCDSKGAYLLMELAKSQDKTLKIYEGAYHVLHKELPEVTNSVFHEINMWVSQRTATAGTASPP
Experimental: as §1

[5] = Dynamic vapor sorption (DVS); assay type: physicochemical
Experimental: Dynamic vapour sorption (DVS) was measured using SMS DVS advantage 01 changing the relative humidity from 0% RH to 95% RH in steps of 10% RH (5% between 90 and 95% RH). 2 cycles were performed using 4 mg, starting at 30% RH. The weight changes during the sorption/desorption cycles were plotted, allowing for the hygroscopic nature of the sample to be determined.

CC(C)(Oc1cc(C(F)(F)F)ccc1CN1CCN(C(=O)OC(C(F)(F)F)C(F)(F)F)CC1)C(=O)O [Compound (I) form C, 2-(2-((4-(((1,1,1,3,3,3-hexafluoropropan-2-yl)oxy)carbonyl)piperazin-1-yl)methyl)-5-(trifluoromethyl)phenoxy)-2-methylpropanoic acid form C]
solid form after heating (XRPD) ([1]; listed as Compound (I) Form C): transformed into Form A

CC(C)(Oc1cc(C(F)(F)F)ccc1CN1CCN(C(=O)OC(C(F)(F)F)C(F)(F)F)CC1)C(=O)O [Compound (I) form D, 2-(2-((4-(((1,1,1,3,3,3-hexafluoropropan-2-yl)oxy)carbonyl)piperazin-1-yl)methyl)-5-(trifluoromethyl)phenoxy)-2-methylpropanoic acid form D]
thermodynamic stability relative to other crystalline forms [1]: more thermodynamically stable at higher temperatures | thermodynamic stability relative to other crystalline forms ([1]; listed as Compound (I) Form D): more thermodynamically stable at high temperature but less stable at low temperature compared to Compound (I) Form A | temperature above which Compound (I) Form D is the more stable form ([2]; compared with Form A, inferred from slurry experiments): ≥ 60 °C

CC(C)(Oc1cc(C(F)(F)F)ccc1CN1CCN(C(=O)OC(C(F)(F)F)C(F)(F)F)CC1)C(=O)O [Compound (I), 2-(2-((4-(((1,1,1,3,3,3-hexafluoropropan-2-yl)oxy)carbonyl)piperazin-1-yl)methyl)-5-(trifluoromethyl)phenoxy)-2-methylpropanoic acid]
inhibition at 5 mg/kg [3]: ≥ 75% | inhibition at 1 µM ([4]; 1 μM, human proteome, read-out: MAGL % inh. 1 μM (human)): ≥ 75% | IC50 ([4]; human proteome, read-out: MAGL IC50 (human)): ≤ 50 nM | IC50 ([4]; protocol of example 14, read-out: MAGL IC50): ≤ 50 nM

CC(C)(Oc1cc(C(F)(F)F)ccc1CN1CCN(C(=O)OC(C(F)(F)F)C(F)(F)F)CC1)C(=O)O [Compound (I) form E, 2-(2-((4-(((1,1,1,3,3,3-hexafluoropropan-2-yl)oxy)carbonyl)piperazin-1-yl)methyl)-5-(trifluoromethyl)phenoxy)-2-methylpropanoic acid form E]
solid form after heating (XRPD) ([1]; listed as Form E): transformed into Compound (I) Form A

CC(C)(Oc1cc(C(F)(F)F)ccc1CN1CCN(C(=O)OC(C(F)(F)F)C(F)(F)F)CC1)C(=O)O [Compound (I) form A, 2-(2-((4-(((1,1,1,3,3,3-hexafluoropropan-2-yl)oxy)carbonyl)piperazin-1-yl)methyl)-5-(trifluoromethyl)phenoxy)-2-methylpropanoic acid form A]
thermodynamic stability relative to other crystalline forms [1]: the most stable free form up to 60 °C | thermodynamic stability relative to other crystalline forms ([1]; listed as Compound (I) Form A): thermodynamically more stable than Compound (I) Form C; also recorded: thermodynamically more stable than Compound (I) Form E | transformation of solid form in slurry ([2]; different solvents, temperatures up to 60° C.): did not lead to transformation into Compound (I) Form D

CC(C)(Oc1cc(C(F)(F)F)ccc1CN1CCN(C(=O)OC(C(F)(F)F)C(F)(F)F)CC1)C(=O)O.O [Compound (I) hydrate, 2-(2-((4-(((1,1,1,3,3,3-hexafluoropropan-2-yl)oxy)carbonyl)piperazin-1-yl)methyl)-5-(trifluoromethyl)phenoxy)-2-methylpropanoic acid hydrate]
behaviour in sorption/desorption cycles ([5]; 0% RH to 95% RH, 2 cycles): dehydration of the hydrate occurs at low relative humidity | solid state after DVS measurement ([5]; after 2 cycles 0% RH to 95% RH): turned amorphous
